# Source: paper PMC10779433, “Bidirectional Allosteric Coupling between PIP2 Binding and the Pore of the Oncochannel TRPV6” (International Journal of Molecular Sciences, 2024)
# Like-named read-outs stand apart in the source and are kept apart here. Residues, ends and D or L forms follow the SMILES beside them. *: point of attachment. Palmitoyl = CCCCCCCCCCCCCCCC(=O)*
# Key:
# TRPV6 WT = molecular target: T1, TRPV6 WT (Homo sapiens, UniProt Q9H1D0); experiment: Fura-2 Ca2+ imaging, TRPV6 WT; format: cell-based; conditions: 20 μM pal-PIP2 peptide; for inhibition at 20 µM: HEK293, read-out: mean percentage of inhibition (Fura-2 signal), HEK293 cells
# T1 construct: expressed in transfected cells; host or cells: HEK293 cells, transient transfection
# T1 sequence (Q9H1D0 41-765 limits assumed): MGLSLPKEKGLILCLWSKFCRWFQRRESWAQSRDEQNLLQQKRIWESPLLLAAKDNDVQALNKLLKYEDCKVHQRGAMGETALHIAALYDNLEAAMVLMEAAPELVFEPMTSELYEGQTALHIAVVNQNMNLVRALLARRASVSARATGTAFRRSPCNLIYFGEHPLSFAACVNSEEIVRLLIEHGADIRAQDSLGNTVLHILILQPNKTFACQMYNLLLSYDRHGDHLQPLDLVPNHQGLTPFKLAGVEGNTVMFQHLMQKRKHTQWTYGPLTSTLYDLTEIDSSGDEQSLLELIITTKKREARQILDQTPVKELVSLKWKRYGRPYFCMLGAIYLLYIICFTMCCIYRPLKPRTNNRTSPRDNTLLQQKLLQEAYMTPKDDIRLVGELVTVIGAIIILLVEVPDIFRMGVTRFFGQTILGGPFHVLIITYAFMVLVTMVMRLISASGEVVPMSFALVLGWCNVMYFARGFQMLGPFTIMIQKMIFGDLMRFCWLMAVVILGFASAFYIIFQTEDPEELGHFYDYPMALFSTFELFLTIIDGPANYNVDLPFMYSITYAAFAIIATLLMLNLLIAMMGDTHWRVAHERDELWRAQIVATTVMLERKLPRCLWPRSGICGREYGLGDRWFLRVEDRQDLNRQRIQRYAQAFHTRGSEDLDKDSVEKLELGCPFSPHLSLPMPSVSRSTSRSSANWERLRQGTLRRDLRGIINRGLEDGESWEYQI
# TRPV6 G579A = experiment: NFAT screen, TRPV6 G579A; format: cell-based, human; conditions: HEK293 cells; 5 μM cis-22a, 2 h; homogeneous localization preferred already without cis-22a
# Method: (§1) N-terminally TagRFP-labeled human TRPV6 (725 aa) was kindly provided by R. Bhardwaj and M. Hediger (University of Bern, Bern, Switzerland). This variant is translated from the first ATG codon and thus deviates from the non-ATG-initiated protein which is expressed in vivo (accession number NM_018646.6) by lacking 40 amino acids of the very N-terminus. For N-terminal labeling with EYFP, TRPV6 was cloned into pEYFP-C1 (Clontech) via EcoRI and SacII restriction sites. […]
# (§2) After incubation, cover slips were carefully rinsed with phenol red-free DMEM supplemented with the compound and dosage corresponding to the previous incubation, which was then also present during imaging. […] Subcellular NFAT localization of TRPV6 expressing cells was again monitored on an Axiovert 135 inverted microscope (Zeiss, Oberkochen, Germany), as described in more detail before. […] Images were analyzed using Matlab2018a, differentiating between three cell populations based on the ratio of CFP emission intensity originating from the nucleus and the cytosol, similar to Schober et al. (2019).
# TRPV6 R470A [1] = experiment: NFAT screen, TRPV6 R470A; format: cell-based, human; conditions: HEK293 cells; 5 μM cis-22a, 2 h, vs DMSO
# Method: as §1, §2
# TRPV6 I575A = test system: TRPV6 I575A; parameters: method as in PMID 33246965; conditions: HEK293 cells; 0.1 μM and 10 μM cis-22a; Figure 5B; ref [47]; cited from earlier work
# TRPV6 G488R = conditions: ref [62]; cited from earlier work
# Source text: As mentioned before, the G488R mutation resides within the segment linking the fourth and fifth transmembrane domain of TRPV6. Importantly, different examples exist throughout the entire TRP superfamily, highlighting the importance of the corresponding protein section for a proper channel function, for instance, by serving as a binding site for different agonists or antagonists.
# TRPV6 W583A = experiment: NFAT screen, TRPV6 W583A; format: cell-based, human; conditions: HEK293 cells; 5 μM cis-22a, 2 h, vs DMSO; analysable cells hardly present
# Method: as §1, §2
# TRPV6 R470A [2] = conditions: HEK293 cells, ref [47], cited from earlier work
# Source text: (§3) Thereby, some mutants which were investigated in our previous publications are shown again to simplify comparison with other treatments.
# TRPV6 K484A = conditions: HEK293 cells, ref [62], cited from earlier work
# Source text: as §3
# TRPV6 D580K = test system: TRPV6 D580K; parameters: method as in PMID 33246965; conditions: HEK293 cells; 0.1 μM and 10 μM cis-22a; Figure 5B; ref [47]; cited from earlier work
Structure (SMILES),"inhibition at 20 µM (TRPV6 WT; applied after 0.5 μM cis-22a, Figure 6D, not significantly different from reverse order) [%]","inhibition at 20 µM (TRPV6 WT; applied first (before cis-22a), Figure 6C) [%]","decrease in cytosolic Ca2+ level (TRPV6 WT; HEK293 cells, 2 mM Ca2+, Figure 1B, significantly stronger than control peptide (p < 0.05))","reduction of intracellular Ca2+ level (TRPV6 WT; HEK293 cells, 2 mM Ca2+, Figure 2A, comparison with G488R)",change of nuclear NFAT localization (TRPV6 G579A),reduction of nuclear NFAT localization (TRPV6 R470A [1]),response to cis-22a vs TRPV6 WT (TRPV6 I575A),sensitivity to cis-22a (in words) (TRPV6 G488R),change of nuclear NFAT localization (TRPV6 W583A),current inhibition vs TRPV6 WT (TRPV6 R470A [2]; 0.1 μM cis-22a),"current inhibition vs TRPV6 WT (TRPV6 R470A [2]; 10 μM cis-22a, after 0.1 μM)",current inhibition vs TRPV6 WT (TRPV6 K484A; 0.1 μM cis-22a),"current inhibition vs TRPV6 WT (TRPV6 K484A; 10 μM cis-22a, after 0.1 μM)",response to cis-22a vs TRPV6 WT (TRPV6 D580K)
CCCCCCCCCCCCCCCC(=O)N[C@@H](Cc1c[nH]cn1)C(=O)N[C@@H](CCCNC(=N)N)C(=O)N[C@@H](CCC(N)=O)C(=O)N[C@@H](CCCCN)C(=O)N[C@@H](Cc1c[nH]cn1)C(=O)N[C@@H](Cc1ccccc1)C(=O)N[C@@H](CCC(=O)O)C(=O)N[C@@H](CCCCN)C(=O)N[C@@H](CCCNC(=N)N)C(=O)N[C@@H](CCCNC(=N)N)C(N)=O [pal-PIP2 peptide] (Palmitoyl-HRQKHFEKRR-NH2),9.18,10.8,approximately 11%,about 13%,–,–,–,–,–,–,–,–,–,–
Cc1cccc(C2CCC(N3CCN(c4cccnc4)CC3)CC2)c1.O=C(O)C(F)(F)F (stereo not drawn) [cis-22a],–,–,–,–,further significant reduction in the proportion of cells showing nucleus-resident NFAT,failed to significantly reduce NFAT nuclear localization,significantly reduced response,largely insensitive,nuclear NFAT localization was higher for cis-22a-treated cells compared to the DMSO control,significantly reduced,significantly reduced inhibition,significantly reduced,significantly reduced inhibition,significantly reduced response
